Results reported in patent publication US8461299B2, “Peptide capable of binding to immunoglobulin” (MMT Co., Ltd., priority 2007, dated 2013).

Key:
[1] = tested on: binding between human C1q protein and alkaline phosphatase (ALP)-labeled human immunoglobulin (IgG); test: Inhibition of the binding between an immunoglobulin and C1q (C1q spotted on nitrocellulose membrane, ALP-labeled IgG detection); conditions: peptide 500 μg/ml; 400 ng human C1q per spot; ALP-labeled human IgG diluted 1000-fold; room temperature, one hour
Description: It was investigated whether or not the 9 residue-peptide CKVPGLYYF (SEQ ID NO: 2) considered to be necessary for the binding between C1q and an immunoglobulin (IgG) inhibits the binding between C1q and an immunoglobulin. Peptide (R2) having the amino acid sequence of SEQ ID NO: 2, peptide (R1) having a shorter amino acid sequence than this peptide, PGLYYF (SEQ ID NO: 1), as well as peptide (R3) having the amino acid sequence SGKFTCKVPGLYYFT (SEQ ID NO: 3), peptide (R4) having the amino acid sequence FTCKVPGLYYFTYHA (SEQ ID NO: 4), peptide (R5) having the amino acid sequence STGKFTCKVPGLYYF (SEQ ID NO: 5), and peptide (R6) having the amino acid sequence CKVPGLYYFVYHASH (SEQ ID NO: 7), which contain the amino acid sequence indicated by SEQ ID NO: 2, were prepared by outsourcing to GL Biochem (Shanghai). Each peptide was dissolved in dimethylsulfoxide so as to reach a concentration of 10 mg/ml and stored.
Human C1q protein (manufactured by Carbiochem) was dissolved in 10 mM HEPES, 300 mM NaCl and 40% glycerol (pH 7.2) to prepare a 200 μg/ml human C1q protein solution.
The human C1q protein solution was spotted at 2 μl (400 ng) each onto a 5 mm×15 mm size nitrocellulose membrane (Hybond C; manufactured by Amersham), which was air-dried at room temperature for approximately one hour. The nitrocellulose membrane was soaked in TBS, incubated for 5 minutes, and blocked at room temperature for one hour using TBS (20 mM Tris-HCl pH 7.5, 150 mM NaCl) containing 5% blocking agent (Amersham ECL blocking reagent; manufactured by GE Healthcare). After a slight wash in TBS, the membrane was soaked in 20 μl of a mixed solution of alkaline phosphatase (ALP)-labeled human immunoglobulin (IgG) (manufactured by BECKMAN COULTER) diluted 1000-fold in TBS and each peptide so as to reach a concentration of 500 μg/ml, and let it react at room temperature for one hour. After a slight wash in TTBS solution (TBS added with Tween 20 to a final concentration of 0.05%), the membrane was washed in the same solution for 10 minutes, shaking three times.
After the nitrocellulose membrane was washed slightly in ALP coloring buffer (Tris-HCl containing 100 mM NaCl, 5 mM MgCl2, pH 9.5), it was soaked in 30 μl ALP coloring buffer containing BCIP/NBT solution (manufactured by Promega), and colored at room temperature for 10 minutes. Upon obtaining a staining image, the nitrocellulose membrane was soaked in a sufficient amount of distilled water to wash away the coloring buffer. After washing the nitrocellulose membrane was air-dried and the staining image was captured using Multi Gauge (FUJIFILM). […]

[2] = tested on: monoclonal antibody cocktail-induced arthritis mice; test: Arthritis inhibitory action on an arthritis-induced mouse-2 (clinical score, general state, body weight); type: in vivo; conditions: 10 mg/kg intraperitoneally twice daily from day 0 for 14 days
Method: The arthritis inhibitory action of the peptides indicated in Example 2 as R1, R2 and R5 was examined using monoclonal antibody cocktail-induced arthritis mice. An arthritis-inducing monoclonal antibody cocktail was intravenously administered at 2 mg/individual, and three days later, LPS was intraperitoneally administered at 50 μg/individual to the mice to induce arthritis. For each peptide, from the day the arthritis-inducing monoclonal antibody cocktail was administered (day 0), continuous administration was carried out at 10 mg/kg each, twice daily, for 14 days, and the arthritis inhibitory action was examined by clinical scoring. Note that the experiments were carried out by similar methods to Example 3 (1).
Based on the animal body weight, the required amount of each peptide was calculated. A solution was prepared with a 0.5% methyl cellulose solution so as to reach a concentration of 1 mg/ml, and was stored refrigerated.
With the day the arthritis-inducing monoclonal antibody cocktail was administered as day 0, the animal's body weight was measured on day 0, 3, 6, 9, 12 and 14 during the test period. General state observation was carried out daily.
The body weight was measured on the day prior to starting administration and randomly assigned with a grouping software so that the average body weight value of each group was approximately the equal. To twenty 7 week-old mice, an arthritis-inducing monoclonal antibody cocktail were intravenously administered at 2 mg/individual on day 0, and LPS was intraperitoneally administered at 50 μg/individual on day 3.
Each peptide solution was intraperitoneally administered twice daily, in the morning and in the afternoon, from day 0. As a control, 0.5% methyl cellulose solution was intraperitoneally administered twice daily from day 0. For administration, a syringe needle (26G, Terumo) and a syringe barrel (1.0 ml capacity, Terumo) were used. The dosage was 10 ml/kg. […]

[3] = tested on: Type III allergic (Arthus) reaction-induced rat; test: Type III allergic (Arthus) reaction model, Evans blue dye leakage; type: in vivo
Method: The test for peptide R1, R2 and R5 using 64 male rats of the Slc:Wistar strain, which were 7 weeks old was carried out in twice, i.e. for each administration method (intraperitoneal administration and tail vein administration). Acclimation was carried out by giving normal solid chow CRF-1 for 9 days or longer. The day prior to administration, the dorsal hair of the animal was shaved, and on the administration day, a solution of OVA+Evans blue dye mix was administered into the tail vein. Each peptide solution was administered, 30 minutes after administration of a solution of OVA+Evans blue dye mix if administered intraperitoneally or 50 minutes after if administered into the tail vein, respectively. Regarding intracutaneous administration of anti-OVA solution, the solution was intradermally administered to the dorsal region of the animal at a dose of 0.1 ml/site, 30 minutes after administration of the test substance in case of intraperitoneal administration or 10 minutes after in case of intravenous administration, to induce locally an Arthus reaction. Four hours after the induction, the animals were euthanized, the blood was removed thoroughly, and then the dorsal skin was removed. The Arthus reaction site on the removed skin was punched out, and the Evans blue dye was extracted from this skin overnight. The amount of dye leaked was quantified by measuring the absorbance for Evans blue dye with a spectrophotometer and using a calibration curve (note that, regarding experimental methods used in Example 4, reference should be made to H. Okamoto, Y. Iwahisa and M. Terasawa: Suppression of the Arthus reaction by Y-24180, a potent and specific antagonist of platelet-activating factor. Agents Actions, 35: 149-158 (1992)).
The predetermined weighed amounts of each peptide (peptides R1, R2 and R5) were dissolved in physiological saline respectively to obtain a 20 mg/ml solution. A 2 mg/ml solution was prepared by diluting 10-fold a 20 mg/mL solutions with physiological saline. 5 mg/ml solutions were prepared by dissolving each peptide in predetermined weighed amounts in physiological saline to obtain preparation solutions.
A solution of OVA+Evans blue dye mix was administered into the tail vein at 2 ml/kg. Each peptide solution was administered, 30 minutes after administration of the solution of OVA+Evans blue dye mix if administered intraperitoneally or 50 minutes after if administered into the tail vein, respectively. Regarding intracutaneous administration of anti-OVA solution, the solution was intradermally administered to the dorsal region of the animal at a dose of 0.1 ml/site, 30 minutes after administration of the test substance in case of intraperitoneal administration or 10 minutes after in case of intravenous administration, to induce locally an Arthus reaction. Intracutaneous administration was such that there were two PBS sites and two ant-OVA solution sites per animal. Four hours after the induction, the animals were euthanized by decapitation under ether anesthesia, the blood was removed thoroughly, and then the dorsal skin was removed. […]
The skin strip that was punched out with a punch was slit at several locations, soaked in 2 ml of dye extraction solution, and shaken and agitated for 10 minutes. […] The amount of dye leaked was calculated from the dye amount calibration curve.
The group mean values (mean)±standard deviation (SD) were calculated for the body weight measurement values and the amounts of dye leaked. […]

[4] = tested on: monoclonal antibody cocktail-induced arthritis mice (BALB/c Cr Slc (SPF)); test: Arthritis inhibitory action on an arthritis-induced mouse-1 (clinical score); type: in vivo
Method: Using monoclonal antibody cocktail-induced arthritis mice (BALB/c Cr Slc (SPF)), the arthritis inhibitory action of the peptide indicated as R5 in Example 2 was examined. Arthritis was induced by intravenous administration of 2 mg/individual of an arthritis-inducing monoclonal antibody cocktail, followed by intraperitoneal administration of 50 μg/individual of Lipopolysaccharide (LPS) three days later. From the day following LPS administration (day 4) until day 14, 10 mg/kg of peptide. R5 was intraperitoneally administered once daily or twice daily. The positive control agent methotrexate was orally administered once daily at 0.1 mg/kg from day 4. The clinical score of the extremities was measured on even days from day 0 to day 14. Under anesthesia, blood was removed with heparin-containing physiological saline, ice-cold 4% paraformaldehyde solution was continuously injected to perfusion-fix the whole body. After perfusion-fixation subsequent, both hind limbs knee joints (the center of the femur and the center of the tibia were cut; skin and muscles were removed) and heel joints (from the center of the tibia to the toe tips) were excised and further immersion-fixed with 4% paraformaldehyde solution overnight (4° C.). Thereafter, both knee and heel joints were transferred to 50 mM PBS (4° C.), then soft x-ray radiography of the heel articulations were taken from two directions (internal side direction and upper side direction).
Based on the animal body weight, the required amount was calculated for the peptide. A peptide solution was prepared with a 0.5% methyl cellulose solution so as to reach a concentration of 1 mg/ml, and the prepared peptide solution was stored refrigerated. […]
With the day the arthritis-inducing monoclonal antibody cocktail was administered as day 0, the animal's body weight was measured on day 0, 3, 6, 9, 12 and 14 during the test period. […]

[5] = intraperitoneal administration, 10 mg/kg or 100 mg/kg
[6] = tail vein administration, 10 mg/kg

| Substance | inhibition of the binding between C1q and an immunoglobulin (IgG) [1] | arthritis inhibitory action (clinical score) [2] | inhibitory action on immune-complex disease (amount of dye leaked) [3, 5] | inhibitory action on immune-complex disease (amount of dye leaked) [3, 6] | arthritis inhibition (clinical score) ([4]; 10 mg/kg intraperitoneally once daily or twice daily, day 4 until day 14) | difference in effectiveness between once daily administration and twice daily administration ([4]; 10 mg/kg intraperitoneally, day 4 until day 14) | level of arthritis inhibition compared with methotrexate ([4]; peptide 10 mg/kg intraperitoneally, methotrexate 0.1 mg/kg orally once daily from day 4) |
| --- | --- | --- | --- | --- | --- | --- | --- |
| PGLYYF (Immunoglobulin binding peptide) [R1] | inhibited | Arthritis inhibitory action was observed | clear and sufficient inhibitory action | clear and sufficient inhibitory action |  |  |  |
| STAKFTCKVPGLYYF (Immunoglobulin binding peptide) [R11] | inhibit |  |  |  |  |  |  |
| STGKFTCKVPGLYYF (Immunoglobulin binding peptide) [R5] |  | Arthritis inhibitory action was observed | clear and sufficient inhibitory action |  | an effect on arthritis inhibition was observed | no significant difference | higher than that of methotrexate |

Second part, led by results:

| inhibition of the binding between C1q and an immunoglobulin (IgG) [1] | Substance | arthritis inhibitory action (clinical score) [2] | inhibitory action on immune-complex disease (amount of dye leaked) [3, 5] | inhibitory action on immune-complex disease (amount of dye leaked) [3, 6] | arthritis inhibition (clinical score) ([4]; 10 mg/kg intraperitoneally once daily or twice daily, day 4 until day 14) | difference in effectiveness between once daily administration and twice daily administration ([4]; 10 mg/kg intraperitoneally, day 4 until day 14) | level of arthritis inhibition compared with methotrexate ([4]; peptide 10 mg/kg intraperitoneally, methotrexate 0.1 mg/kg orally once daily from day 4) |
| --- | --- | --- | --- | --- | --- | --- | --- |
| inhibited | CKVPGLYYF (Immunoglobulin binding peptide) [R2] | Arthritis inhibitory action was observed | clear and sufficient inhibitory action | clear and sufficient inhibitory action |  |  |  |
| inhibit | CKAPGLYYF (Immunoglobulin binding peptide) [R10] |  |  |  |  |  |  |
